From ChEMBL document CHEMBL3797167, “Development of a peptide-based inducer of nuclear receptors degradation” (Bioorg Med Chem Lett, 2016)
Values belong to the compound of their own block, whether it stands above or below them. Calls of active or inactive are those of the source. No cut-off for these calls is given here.

Columns and labels:
[1] = molecular target: T1, Aryl hydrocarbon receptor (Homo sapiens, UniProt P35869); assay: Induction of AhR degradation in human MCF7 cells at 3 to 6 uM after 6 hrs by Western blot analysis; type: cell-based; settings: mcf7, 6 h
T1 sequence (P35869 whole entry): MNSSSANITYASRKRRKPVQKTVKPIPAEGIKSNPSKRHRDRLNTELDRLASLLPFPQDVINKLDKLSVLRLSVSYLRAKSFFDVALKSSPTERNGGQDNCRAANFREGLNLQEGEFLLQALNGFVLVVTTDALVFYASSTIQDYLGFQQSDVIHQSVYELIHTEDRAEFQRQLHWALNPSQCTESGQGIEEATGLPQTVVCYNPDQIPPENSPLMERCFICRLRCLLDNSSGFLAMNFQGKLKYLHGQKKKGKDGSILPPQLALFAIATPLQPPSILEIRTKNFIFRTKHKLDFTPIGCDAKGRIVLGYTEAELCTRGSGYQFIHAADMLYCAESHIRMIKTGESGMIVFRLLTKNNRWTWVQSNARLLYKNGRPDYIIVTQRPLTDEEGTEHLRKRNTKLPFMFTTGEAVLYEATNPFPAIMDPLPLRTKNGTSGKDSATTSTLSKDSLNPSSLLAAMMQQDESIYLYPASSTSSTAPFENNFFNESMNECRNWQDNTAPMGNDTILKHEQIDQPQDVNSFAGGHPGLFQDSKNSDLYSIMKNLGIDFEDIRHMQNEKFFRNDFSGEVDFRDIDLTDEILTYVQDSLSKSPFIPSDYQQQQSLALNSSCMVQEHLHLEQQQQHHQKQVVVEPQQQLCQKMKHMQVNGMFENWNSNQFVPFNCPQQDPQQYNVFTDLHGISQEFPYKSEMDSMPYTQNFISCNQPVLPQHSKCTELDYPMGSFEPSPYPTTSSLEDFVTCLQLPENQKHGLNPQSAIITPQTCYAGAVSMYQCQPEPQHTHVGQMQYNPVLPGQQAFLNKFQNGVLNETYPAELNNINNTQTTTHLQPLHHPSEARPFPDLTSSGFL

[2] = molecular target: T2, Androgen receptor (Homo sapiens) (UniProt P10275); assay: Induction of AR degradation in human MCF7 cells assessed as AR/actin ratio level at 6 uM after 6 hrs by Western blot analysis (reference value: 100%); type: cell-based
T2 sequence (whole entry): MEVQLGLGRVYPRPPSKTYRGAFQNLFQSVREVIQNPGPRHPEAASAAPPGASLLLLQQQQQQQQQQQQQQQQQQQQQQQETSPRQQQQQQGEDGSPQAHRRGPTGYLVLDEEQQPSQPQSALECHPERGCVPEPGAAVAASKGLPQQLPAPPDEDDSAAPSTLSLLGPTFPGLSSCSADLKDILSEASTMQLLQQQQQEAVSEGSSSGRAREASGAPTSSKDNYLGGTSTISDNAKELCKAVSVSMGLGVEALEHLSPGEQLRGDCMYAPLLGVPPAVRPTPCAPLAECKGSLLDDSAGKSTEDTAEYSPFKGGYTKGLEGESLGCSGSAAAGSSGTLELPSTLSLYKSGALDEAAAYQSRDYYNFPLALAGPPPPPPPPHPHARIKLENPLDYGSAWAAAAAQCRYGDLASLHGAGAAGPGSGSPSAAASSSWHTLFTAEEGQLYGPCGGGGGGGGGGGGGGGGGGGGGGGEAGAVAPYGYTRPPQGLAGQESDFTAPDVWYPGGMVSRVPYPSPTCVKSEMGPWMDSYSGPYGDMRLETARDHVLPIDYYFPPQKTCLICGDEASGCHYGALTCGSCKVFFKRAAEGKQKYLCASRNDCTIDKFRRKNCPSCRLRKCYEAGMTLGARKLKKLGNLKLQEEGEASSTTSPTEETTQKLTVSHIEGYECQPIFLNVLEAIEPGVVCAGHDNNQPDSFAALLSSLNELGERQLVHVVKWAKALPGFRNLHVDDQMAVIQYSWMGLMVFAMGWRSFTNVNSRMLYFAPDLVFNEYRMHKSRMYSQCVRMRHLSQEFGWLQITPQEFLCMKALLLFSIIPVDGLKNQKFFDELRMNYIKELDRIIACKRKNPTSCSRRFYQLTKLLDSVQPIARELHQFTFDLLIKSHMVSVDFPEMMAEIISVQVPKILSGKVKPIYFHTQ

[3] = molecular target: T2, Androgen receptor (Homo sapiens); assay: Induction of AR degradation in human MCF7 cells at 3 to 6 uM after 6 hrs by Western blot analysis; type: cell-based
[4] = molecular target: Aryl hydrocarbon receptor (Homo sapiens) (UniProt P35869); assay: Induction of AhR degradation in human MCF7 cells assessed as AhR/actin ratio level at 3 uM after 6 hrs by Western blot analysis (reference value: 100%)
[5] = molecular target: T3, Estrogen receptor (Homo sapiens) (UniProt P03372); assay: Induction of ERalpha degradation in human MCF7 cells after 6 hrs by Western blot analysis; type: cell-based
T3 sequence (whole entry): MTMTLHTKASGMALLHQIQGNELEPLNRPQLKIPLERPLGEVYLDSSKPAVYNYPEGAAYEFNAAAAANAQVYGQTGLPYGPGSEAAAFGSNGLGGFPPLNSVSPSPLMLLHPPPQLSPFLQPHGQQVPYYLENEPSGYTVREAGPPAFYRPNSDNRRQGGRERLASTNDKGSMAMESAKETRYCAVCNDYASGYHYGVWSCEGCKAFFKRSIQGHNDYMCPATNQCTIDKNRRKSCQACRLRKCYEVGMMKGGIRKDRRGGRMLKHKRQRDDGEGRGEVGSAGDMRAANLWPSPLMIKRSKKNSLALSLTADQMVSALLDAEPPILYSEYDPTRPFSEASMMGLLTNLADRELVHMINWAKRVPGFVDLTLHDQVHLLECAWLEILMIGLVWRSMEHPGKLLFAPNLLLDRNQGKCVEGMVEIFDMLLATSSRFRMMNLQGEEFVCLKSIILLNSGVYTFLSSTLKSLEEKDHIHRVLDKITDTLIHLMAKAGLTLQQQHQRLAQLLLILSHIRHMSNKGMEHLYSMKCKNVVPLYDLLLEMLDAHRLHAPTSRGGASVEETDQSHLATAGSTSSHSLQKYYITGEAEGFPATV

[6] = molecular target: T3, Estrogen receptor (Homo sapiens); assay: Induction of ERalpha degradation in human MCF7 cells assessed as ERalpha/actin ratio level at 6 uM after 6 hrs by Western blot analysis (reference value: 100%); type: cell-based
[7] = molecular target: T2, Androgen receptor (Homo sapiens); assay: Induction of AR degradation in human MCF7 cells assessed as AR/actin ratio level at 4.5 uM after 6 hrs by Western blot analysis (reference value: 100%); type: cell-based
[8] = molecular target: Aryl hydrocarbon receptor (Homo sapiens) (UniProt P35869); assay: Induction of AhR degradation in human MCF7 cells assessed as AhR/actin ratio level at 4.5 uM after 6 hrs by Western blot analysis (reference value: 100%)
[9] = molecular target: T2, Androgen receptor (Homo sapiens); assay: Induction of AR degradation in human MCF7 cells at 3 to 6 uM after 6 hrs by Western blot in presence of MG132; type: cell-based
[10] = molecular target: Aryl hydrocarbon receptor (Homo sapiens) (UniProt P35869); assay: Induction of AhR degradation in human MCF7 cells assessed as AhR/actin ratio level at 6 uM after 6 hrs by Western blot analysis (reference value: 100%)
MCF7 [11] = assay: Cytotoxicity against human MCF7 cells at >6 uM after 6 hrs; type: cell-based; settings: mcf7, 6 h
[12] = molecular target: T3, Estrogen receptor (Homo sapiens); assay: Induction of ERalpha degradation in human MCF7 cells assessed as ERalpha/actin ratio level at 4.5 uM after 6 hrs by Western blot analysis (reference value: 100%); type: cell-based
[13] = molecular target: T3, Estrogen receptor (Homo sapiens); assay: Induction of ERalpha degradation in human MCF7 cells assessed as ERalpha/actin ratio level at 3 uM after 6 hrs by Western blot analysis (reference value: 100%); type: cell-based
[14] = molecular target: Baculoviral IAP repeat-containing protein 2 (Homo sapiens) (UniProt Q13490); assay: Induction of cIAP1 degradation in human MCF7 cells after 6 hrs by Western blot analysis; type: cell-based
Baculoviral IAP repeat-containing protein 2 (Homo sapiens), sequence (Q13490 whole entry): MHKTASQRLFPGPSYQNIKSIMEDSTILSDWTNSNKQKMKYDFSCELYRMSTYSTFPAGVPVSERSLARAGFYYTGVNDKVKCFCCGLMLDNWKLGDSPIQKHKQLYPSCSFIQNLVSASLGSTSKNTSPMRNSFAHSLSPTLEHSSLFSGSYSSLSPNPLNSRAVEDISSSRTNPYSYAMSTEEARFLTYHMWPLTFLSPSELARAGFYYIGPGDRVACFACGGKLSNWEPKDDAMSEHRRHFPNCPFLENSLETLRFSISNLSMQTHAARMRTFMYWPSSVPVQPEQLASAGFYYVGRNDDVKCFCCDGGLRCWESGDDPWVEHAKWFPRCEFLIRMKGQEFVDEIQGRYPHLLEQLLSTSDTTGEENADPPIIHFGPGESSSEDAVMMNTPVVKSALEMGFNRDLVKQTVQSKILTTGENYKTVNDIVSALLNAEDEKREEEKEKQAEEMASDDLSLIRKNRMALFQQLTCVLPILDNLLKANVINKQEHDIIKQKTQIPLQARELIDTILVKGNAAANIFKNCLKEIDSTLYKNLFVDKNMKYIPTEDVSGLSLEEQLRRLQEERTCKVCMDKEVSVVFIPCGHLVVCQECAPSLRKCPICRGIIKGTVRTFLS

[15] = molecular target: T2, Androgen receptor (Homo sapiens); assay: Induction of AR degradation in human MCF7 cells assessed as AR/actin ratio level at 3 uM after 6 hrs by Western blot analysis (reference value: 100%); type: cell-based
MCF7 [16] = assay: Cytotoxicity against human MCF7 cells at 20 uM after 6 hrs; type: cell-based; settings: mcf7, 6 h
[17] = molecular target: T3, Estrogen receptor (Homo sapiens); assay: Induction of ERalpha degradation in human MCF7 cells assessed as ERalpha/lamin ratio level at 10 uM after 6 hrs by Western blot analysis (reference value: 100%); type: cell-based
[18] = molecular target: T2, Androgen receptor (Homo sapiens); assay: Induction of AR degradation in human MCF7 cells assessed as AR/lamin ratio level at 10 uM after 6 hrs by Western blot analysis (reference value: 100%); type: cell-based
[19] = molecular target: T3, Estrogen receptor (Homo sapiens); assay: Induction of ERalpha degradation in human MCF7 cells assessed as ERalpha/lamin ratio level at 20 uM after 6 hrs by Western blot analysis (reference value: 100%); type: cell-based
[20] = molecular target: T1, Aryl hydrocarbon receptor; assay: Induction of AhR degradation in human MCF7 cells at 10 to 20 uM after 6 hrs by Western blot analysis; type: cell-based; settings: mcf7, 6 h
[21] = molecular target: T3, Estrogen receptor (Homo sapiens); assay: Induction of ERalpha degradation in human MCF7 cells at 10 to 20 uM after 6 hrs by Western blot analysis in presence of MG132; type: cell-based
[22] = molecular target: Baculoviral IAP repeat-containing protein 2 (Homo sapiens) (UniProt Q13490); assay: Induction of cIAP1 degradation in human MCF7 cells at 10 to 20 uM after 6 hrs by Western blot analysis in presence of MG132; type: cell-based
[23] = molecular target: T2, Androgen receptor (Homo sapiens); assay: Induction of AR degradation in human MCF7 cells at 10 to 20 uM after 6 hrs by Western blot in presence of MG132; type: cell-based
[24] = molecular target: T2, Androgen receptor (Homo sapiens); assay: Induction of AR degradation in human MCF7 cells at 10 to 20 uM after 6 hrs by Western blot analysis; type: cell-based
[25] = molecular target: T1, Aryl hydrocarbon receptor; assay: Induction of AhR degradation in human MCF7 cells assessed as AhR/lamin ratio level at 20 uM after 6 hrs by Western blot analysis (reference value: 100%); type: cell-based; settings: mcf7, 6 h
[26] = molecular target: T3, Estrogen receptor (Homo sapiens); assay: Induction of ERalpha degradation in human MCF7 cells at 10 to 20 uM after 6 hrs by Western blot analysis; type: cell-based
[27] = molecular target: T1, Aryl hydrocarbon receptor; assay: Induction of AhR degradation in human MCF7 cells assessed as AhR/lamin ratio level at 10 uM after 6 hrs by Western blot analysis (reference value: 100%); type: cell-based; settings: mcf7, 6 h
[28] = molecular target: T2, Androgen receptor (Homo sapiens); assay: Induction of AR degradation in human MCF7 cells assessed as AR/lamin ratio level at 20 uM after 6 hrs by Western blot analysis (reference value: 100%); type: cell-based

Activity [1]: Not Active
Activity [2]: 57%
Activity [3]: Active
Activity [4]: 173%
Activity [5]: Dose-dependent effect
Activity [6]: 77%
Activity [7]: 72%
Activity [8]: 178%
Activity [9]: inactive
Activity [10]: 137%
Activity [12]: 87%
Activity [13]: 87%
Activity [14]: Dose-dependent effect
Activity [15]: 77%
Structure (SMILES): CC[C@H](C)[C@H]1NC(=O)[C@@H](NC(=O)[C@@H](N)CCCCNC(=O)COCCOCCNC(=O)COCCOCCNC(=O)[C@@H](NC(=O)[C@@H]2CCCN2C(=O)[C@H](NC(=O)[C@H](C)NC)C2CCCCC2)C(c2ccccc2)c2ccccc2)CSSC[C@H](C(=O)N[C@H](CCCNC(=N)N)C(=O)N[C@H](CC(C)(C)C)C(=O)N[C@H](CC(C)C)C(=O)N[C@H](CCC(N)=O)C(=O)NCC(=O)NCC(=O)NCC(=O)N[C@H](CCCNC(=N)N)C(=O)N[C@H](CCCNC(=N)N)C(=O)N[C@H](CCCNC(=N)N)C(=O)N[C@H](CCCNC(=N)N)C(=O)N[C@H](CCCNC(=N)N)C(=O)N[C@H](CCCNC(=N)N)C(=O)N[C@@H](CCCNC(=N)N)C(N)=O)NC(=O)[C@@H](CC(C)C)NC1=O
Activity (MCF7 [11]): Toxic

Activity [17]: 82%
Activity [18]: 77%
Activity [19]: 64%
Activity [20]: Not Active
Activity [21]: inactive
Activity [22]: inactive
Activity [23]: inactive
Activity [24]: Active
Activity [25]: 98%
Activity [26]: Active
Activity [27]: 109%
Activity [28]: 54%
Structure (SMILES): CC[C@@H](C)[C@@H]1NC(=O)[C@H](NC(=O)[C@H](N)CCCCNC(=O)CCNC(=O)CCNC(=O)CCNC(=O)CCNC(=O)CCNC(=O)[C@H](NC(=O)[C@H]2CCCN2C(=O)[C@@H](NC(=O)[C@@H](C)NC)C2CCCCC2)C(c2ccccc2)c2ccccc2)CSSC[C@@H](C(=O)N[C@@H](CCCNC(=N)N)C(=O)N[C@@H](CC(C)(C)C)C(=O)N[C@@H](CC(C)C)C(=O)N[C@@H](CCC(N)=O)C(=O)NCC(=O)NCC(=O)NCC(=O)N[C@@H](CCCNC(=N)N)C(=O)N[C@@H](CCCNC(=N)N)C(=O)N[C@@H](CCCNC(=N)N)C(=O)N[C@@H](CCCNC(=N)N)C(=O)N[C@@H](CCCNC(=N)N)C(=O)N[C@@H](CCCNC(=N)N)C(=O)N[C@H](CCCNC(=N)N)C(N)=O)NC(=O)[C@H](CC(C)C)NC1=O
Activity (MCF7 [16]): Non-toxic
